Biological target: full-length human BTK (Homo sapiens (Human), UniProt Q06187)
Test: BTK IC50 enzyme assay (microfluidic off-chip mobility shift kinase assay)
Format: biochemical
Conditions: incubated for 90 min. at 27 C; read-out: Time Dependent BTK Enzyme Assay IC50
Protocol: The following describes a microfluidic, off-chip mobility shift kinase assay used to measure inherent potency of compounds against BTK enzyme. Compounds described by embodiments of the present invention were assayed using this protocol and the data from the same is recorded in Table 2 within the column labeled: “Time Dependent BTK Enzyme Assay IC50”.
Stopped reactions were monitored at −2 PSI, −3000 V/−700 V in a LabChip 3000 plate reader from Caliper Life Sciences, a PerkinElmer Company (Hopkinton, Mass.), and the activity was measured by off-chip mobility shift assay measuring the charge/mass difference between substrate and product resulting from peptide phosphorylation. IC50 and efficacy were determined by plotting log [Inhibitor] vs. % Activity in GeneData Screener (Basel, Switzerland). […] I<1 uM and II>1 uM.

Sequence of full-length human BTK (Q06187 whole entry): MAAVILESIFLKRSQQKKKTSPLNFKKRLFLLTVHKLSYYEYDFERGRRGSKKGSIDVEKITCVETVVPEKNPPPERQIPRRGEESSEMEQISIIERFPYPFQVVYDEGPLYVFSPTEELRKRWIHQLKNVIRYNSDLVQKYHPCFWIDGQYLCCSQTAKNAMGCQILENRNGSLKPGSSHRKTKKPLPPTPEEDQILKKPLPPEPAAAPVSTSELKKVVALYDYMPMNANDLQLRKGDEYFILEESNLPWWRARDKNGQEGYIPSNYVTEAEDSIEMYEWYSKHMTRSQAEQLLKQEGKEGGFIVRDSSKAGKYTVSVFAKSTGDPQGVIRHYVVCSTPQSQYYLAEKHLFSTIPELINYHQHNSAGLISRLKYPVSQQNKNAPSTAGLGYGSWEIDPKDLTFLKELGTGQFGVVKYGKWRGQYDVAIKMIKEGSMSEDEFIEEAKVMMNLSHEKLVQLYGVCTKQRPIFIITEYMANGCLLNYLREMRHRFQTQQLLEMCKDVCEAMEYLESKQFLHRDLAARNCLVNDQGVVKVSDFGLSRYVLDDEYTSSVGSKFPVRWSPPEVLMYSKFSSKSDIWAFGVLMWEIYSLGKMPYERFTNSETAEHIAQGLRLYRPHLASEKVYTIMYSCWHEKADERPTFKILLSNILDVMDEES

Compound	IC50 [nM]
C#CC(=O)N1C2CCC1CC(CNc1ncnc(N)c1-c1ccc(Oc3ccccc3)cc1)C2 (stereo not drawn) [A68, 1-(3-(((6-amino-5-(4-phenoxyphenyl)pyrimidin-4-yl)amino)methyl)-8-azabicyclo[3.2.1]octan-8-yl)prop-2-yn-1-one]	< 100
C=CC(=O)Nc1cccc(Oc2ncnc(N)c2-c2cnn(Cc3ccc(C#N)cc3)c2)c1 [A69, N-(3-((6-amino-5-(1-(4-cyanobenzyl)-1H-pyrazol-4-yl)pyrimidin-4-yl)oxy)phenyl)acrylamide]	< 1000
CN(C)C/C=C/C(=O)N1C2CCC1CC(CNc1ncnc(N)c1-c1ccc(Oc3ccccc3)cc1)C2 (stereo not drawn) [A71, (E)-1-(3-(((6-amino-5-(4-phenoxyphenyl)pyrimidin-4-yl)amino)methyl)-8-azabicyclo[3.2.1]octan-8-yl)-4-(dimethylamino)but-2-en-1-one]	< 1000
C=CC(=O)Nc1cccc(Oc2ncnc(N)c2-c2cnn(Cc3ccc(OC)cc3)c2)c1 [A72, N-(3-((6-amino-5-(1-(4-methoxybenzyl)-1H-pyrazol-4-yl)pyrimidin-4-yl)oxy)phenyl)acrylamide]	< 100
CN(C)C/C=C/C(=O)N1CC[C@@H](Nc2ncnc(N)c2-c2ccc(Oc3ccccc3)cc2)C1 [A73, (R,E)-1-(3-((6-amino-5-(4-phenoxyphenyl)pyrimidin-4-yl)amino)pyrrolidin-1-yl)-4-(dimethylamino)but-2-en-1-one]	< 1000
CN(C)C/C=C/C(=O)N1CCC[C@@H](Nc2ncnc(N)c2-c2ccc(Oc3ccccc3)cc2)C1 [A74, (R,E)-1-(3-((6-amino-5-(4-phenoxyphenyl)pyrimidin-4-yl)amino)piperidin-1-yl)-4-(dimethylamino)but-2-en-1-one]	< 1000
C=CC(=O)N1CCC(CNc2ccnc(N)c2-c2ccc(Oc3ccccc3)cc2)CC1 [A76, 1-(4-(((2-amino-3-(4-phenoxyphenyl)pyridin-4-yl)amino)methyl)piperidin-1-yl)prop-2-en-1-one]	< 1000
C=CC(=O)N1CCC(CNc2ncnc(N)c2-c2ccc(F)cc2)CC1 [A77, 1-(4-(((6-amino-5-(4-fluorophenyl)pyrimidin-4-yl)amino)methyl)piperidin-1-yl)prop-2-en-1-one]	> 1000
C=CC(=O)N1CCC(CNc2ncnc(N)c2-c2ccc(OC(F)(F)F)cc2)CC1 [A78, 1-(4-(((6-amino-5-(4-(trifluoromethoxy)phenyl)pyrimidin-4-yl)amino)methyl)piperidin-1-yl)prop-2-en-1-one]	> 1000
C=CC(=O)N1CCC(CNc2ncnc(N)c2-c2ccc(Oc3ccc(C(F)(F)F)cc3)cc2)CC1 [A79, 1-(4-(((6-amino-5-(4-(4-(trifluoromethyl)phenoxy)phenyl)pyrimidin-4-yl)amino)methyl)piperidin-1-yl)prop-2-en-1-one]	< 1000
C=CC(=O)N1CCC(CNc2ncnc(N)c2-c2ccc(Oc3ccc(F)cc3)cc2)CC1 [A80]	< 1000
C=CC(=O)N1CCC(CNc2ncnc(N)c2-c2ccc(C(F)(F)F)cc2)CC1 [A81, 1-(4-(((6-amino-5-(4-(trifluoromethyl)phenyl)pyrimidin-4-yl)amino)methyl)piperidin-1-yl)prop-2-en-1-one]	> 1000
C=CC(=O)N1CCC(CNc2ncnc(N)c2-c2ccc(OC)c(OC)c2)CC1 [A82, 1-(4-(((6-amino-5-(3,4-dimethoxyphenyl)pyrimidin-4-yl)amino)methyl)piperidin-1-yl)prop-2-en-1-one]	> 1000
C=CC(=O)N1CCC(CNc2ncnc(N)c2-c2cc(OC)c(OC)c(OC)c2)CC1 [A83, 1-(4-(((6-amino-5-(3,4,5-trimethoxyphenyl)pyrimidin-4-yl)amino)methyl)piperidin-1-yl)prop-2-en-1-one]	< 1000
C=CC(=O)N1CCC(CNc2ncnc(N)c2-c2ccc3c(c2)OCCO3)CC1 [A84, 1-(4-(((6-amino-5-(2,3-dihydrobenzo[b][1,4]dioxin-6-yl)pyrimidin-4-yl)amino)methyl)piperidin-1-yl)prop-2-en-1-one]	> 1000

Other lines, results leading:

IC50 [nM]	Compound
> 1000	C=CC(=O)N1CCC(CNc2ncnc(N)c2-c2ccc(OC)cc2)CC1 [A85, 1-(4-(((6-amino-5-(4-methoxyphenyl)pyrimidin-4-yl)amino)methyl)piperidin-1-yl)prop-2-en-1-one]
< 1000	C=CC(=O)N1CCC(CNc2ncnc(N)c2-c2ccc(Oc3ccc(C#N)cc3)cc2)CC1 [A86, 4-(4-(4-(((1-acryloylpiperidin-4-yl)methyl)amino)-6-aminopyrimidin-5-yl)phenoxy)benzonitrile]
< 1000	C=CC(=O)N1CCC(CNc2ncnc(N)c2-c2cc(F)c(Oc3ccccc3)cc2F)CC1 [A87, 1-(4-(((6-amino-5-(2,5-difluoro-4-phenoxyphenyl)pyrimidin-4-yl)amino)methyl)piperidin-1-yl)prop-2-en-1-one]
< 100	C=CC(=O)N1CCC(CNc2ncnc(N)c2-c2ccc(Oc3ccccc3)c(F)c2F)CC1 [A88, 1-(4-(((6-amino-5-(2,3-difluoro-4-phenoxyphenyl)pyrimidin-4-yl)amino)methyl)piperidin-1-yl)prop-2-en-1-one]
< 1000	C=CC(=O)N1CCC2(CCN(c3ncnc(N)c3-c3ccc(Oc4ccccc4)cc3)CC2)C1 [A92, 1-(8-(6-amino-5-(4-phenoxyphenyl)pyrimidin-4-yl)-2,8-diazaspiro[4.5]decan-2-yl)prop-2-en-1-one]
< 1000	C=CC(=O)N1CCC2(CCN(c3ncnc(N)c3-c3ccc(Oc4ccccc4)cc3)C2)C1 (stereo not drawn) [A93, 1-(7-(6-amino-5-(4-phenoxyphenyl)pyrimidin-4-yl)-2,7-diazaspiro[4.4]nonan-2-yl)prop-2-en-1-one]
> 1000	C=CC(=O)N1CCC(CNc2ncnc(N)c2-c2ccc(Oc3ccc(O)cc3)cc2)CC1 [A94, 1-(4-(((6-amino-5-(4-(4-hydroxyphenoxy)phenyl)pyrimidin-4-yl)amino)methyl)piperidin-1-yl)prop-2-en-1-one]
< 100	C=CC(=O)N1CCC(CNc2ncnc(N)c2-c2ccc(Oc3cccc(C(F)(F)F)c3)cc2)CC1 [A95, 1-(4-(((6-amino-5-(4-(3-(trifluoromethyl)phenoxy)phenyl)pyrimidin-4-yl)amino)methyl)piperidin-1-yl)prop-2-en-1-one]
< 1000	C=CC(=O)N1CCC(CNc2ncnc(N)c2-c2ccc(Oc3cccnc3)cc2)CC1 [A96, 1-(4-(((6-amino-5-(4-(pyridin-3-yloxy)phenyl)pyrimidin-4-yl)amino)methyl)piperidin-1-yl)prop-2-en-1-one]
< 1000	C=CC(=O)N1CCC(CNc2ncnc(N)c2-c2ccc(Oc3ccncc3)cc2)CC1 [A97, 1-(4-(((6-amino-5-(4-(pyridin-4-yloxy)phenyl)pyrimidin-4-yl)amino)methyl)piperidin-1-yl)prop-2-en-1-one]
< 100	C=CC(=O)N1CCC(CNc2ncnc(N)c2-c2ccc(Oc3ccc(C)cc3)cc2)CC1 [A98]
< 1000	C=CC(=O)N1CCC(CNc2ncnc(N)c2-c2ccc(OC3CCCCC3)cc2)CC1 [A99, 1-(4-(((6-amino-5-(4-(cyclohexyloxy)phenyl)pyrimidin-4-yl)amino)methyl)piperidin-1-yl)prop-2-en-1-one]
> 1000	CN(C)C/C=C/C(=O)N1CC2(CC(Oc3ncnc(N)c3Cl)C2)C1 [A102, (E)-1-(6-((6-amino-5-chloropyrimidin-4-yl)oxy)-2-azaspiro[3.3]heptan-2-yl)-4-(dimethylamino)but-2-en-1-one]
< 1000	C=CC(=O)N1CC(CCNc2ncnc(N)c2-c2ccc(Oc3ccccc3)cc2)C1 [A103, 1-(3-(2-((6-amino-5-(4-phenoxyphenyl)pyrimidin-4-yl)amino)ethyl)azetidin-1-yl)prop-2-en-1-one]
< 100	C#CC(=O)N1CC(CCNc2ncnc(N)c2-c2ccc(Oc3ccccc3)cc2)C1 [A104, 1-(3-(2-((6-amino-5-(4-phenoxyphenyl)pyrimidin-4-yl)amino)ethyl)azetidin-1-yl)prop-2-yn-1-one]
< 1000	C=CC(=O)N1CC2(CC(Nc3ncnc(N)c3-c3cnn(Cc4ccccc4)c3)C2)C1 [A107, 1-(6-((6-amino-5-(1-benzyl-1H-pyrazol-4-yl)pyrimidin-4-yl)amino)-2-azaspiro[3.3]heptan-2-yl)prop-2-en-1-one]
< 100	CC#CC(=O)N1CC2(CC(Nc3ncnc(N)c3-c3ccc(Oc4ccccc4)cc3)C2)C1 [A108, 1-(6-((6-amino-5-(4-phenoxyphenyl)pyrimidin-4-yl)amino)-2-azaspiro[3.3]heptan-2-yl)but-2-yn-1-one]
< 100	C=CC(=O)N1CC[C@@H](CNc2ncnc(N)c2-c2cnn(Cc3ccccc3)c2)[C@H](O)C1 [A109, 1-((3S,4S)-4-(((6-amino-5-(1-benzyl-1H-pyrazol-4-yl)pyrimidin-4-yl)amino)methyl)-3-hydroxypiperidin-1-yl)prop-2-en-1-one]
< 100	C#CC(=O)N1CC[C@@H](CNc2ncnc(N)c2-c2cnn(Cc3ccccc3)c2)[C@H](O)C1 [A110, 1-((3S,4S)-4-(((6-amino-5-(1-benzyl-1H-pyrazol-4-yl)pyrimidin-4-yl)amino)methyl)-3-hydroxypiperidin-1-yl)prop-2-yn-1-one]
< 100	C#CC(=O)N1CC2(CC(Nc3ncnc(N)c3-c3cnn(Cc4ccccc4)c3)C2)C1 [A111, 1-(6-((6-amino-5-(1-benzyl-1H-pyrazol-4-yl)pyrimidin-4-yl)amino)-2-azaspiro[3.3]heptan-2-yl)prop-2-yn-1-one]
< 100	C#CC(=O)N1CC2(CC(Oc3ncnc(N)c3-c3cnn(Cc4ccccc4)c3)C2)C1 [A112, 1-(6-((6-amino-5-(1-benzyl-1H-pyrazol-4-yl)pyrimidin-4-yl)oxy)-2-azaspiro[3.3]heptan-2-yl)prop-2-yn-1-one]
